Data as given in patent US20060252807A1, “Novel ortho-terphenyl inhibitors of p38 kinase and methods of treating inflammatory disorders” (Kalypsys, Inc., priority 2005, published 2006).

Target: T1, active p38 alpha enzyme (Upstate Biotechnology) (Homo sapiens, UniProt Q16539)
T1 construct: purchased Upstate Biotechnology
Assay: p38α biochemical assay (ATP turnover, luminescent detection, Cambrex PKlight)
Conditions: p38α kinase; Table 1 Biological Activity
In short: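 Luminescent ATP-depletion readout measures total ATP turnover by p38α phosphorylating whole MapkapK2 protein. ATP 1.4 uM final; 30C, 2 h. Compounds delivered from DMSO.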

T1 sequence (Q16539 whole entry): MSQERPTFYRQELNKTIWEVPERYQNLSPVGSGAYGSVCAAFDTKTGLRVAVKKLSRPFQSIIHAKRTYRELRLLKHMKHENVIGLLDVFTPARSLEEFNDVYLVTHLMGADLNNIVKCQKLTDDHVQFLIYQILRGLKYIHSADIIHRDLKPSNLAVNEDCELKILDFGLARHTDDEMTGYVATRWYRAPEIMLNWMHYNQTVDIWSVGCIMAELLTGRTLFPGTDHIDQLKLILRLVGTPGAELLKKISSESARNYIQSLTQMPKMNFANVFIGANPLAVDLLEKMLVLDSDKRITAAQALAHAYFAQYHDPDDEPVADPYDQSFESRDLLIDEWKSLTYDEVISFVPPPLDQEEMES

IC50 | Compound
> 1 µM | O=C(NN1CCOCC1)c1csc(-c2c(-c3ccc(F)cc3)n[nH]c2C2CCNCC2)n1 [Example 2060]
≤ 1 µM | CC(C)C(CO)NC(=O)c1csc(-c2c(-c3ccc(F)cc3)n[nH]c2C2CCNCC2)n1 (stereo not drawn) [Example 2061]
> 1 µM | O=C(NCc1ccccc1)c1csc(-c2c(-c3ccc(F)cc3)n[nH]c2C2CCNCC2)n1 [Example 2062]
> 1 µM | O=C(NCc1ccccn1)c1csc(-c2c(-c3ccc(F)cc3)n[nH]c2C2CCNCC2)n1 [Example 2063]
≤ 1 µM | O=C(NCc1ccncc1)c1csc(-c2c(-c3ccc(F)cc3)n[nH]c2C2CCNCC2)n1 [Example 2064]
> 1 µM | O=C(NCc1cccs1)c1csc(-c2c(-c3ccc(F)cc3)n[nH]c2C2CCNCC2)n1 [Example 2065]
> 1 µM | CC1CCC(NC(=O)c2csc(-c3c(-c4ccc(F)cc4)n[nH]c3C3CCNCC3)n2)CC1 (stereo not drawn) [Example 2066]
> 1 µM | O=C(NCC1CCCCC1)c1csc(-c2c(-c3ccc(F)cc3)n[nH]c2C2CCNCC2)n1 [Example 2067]
> 1 µM | O=C(NC1CCCCCC1)c1csc(-c2c(-c3ccc(F)cc3)n[nH]c2C2CCNCC2)n1 [Example 2068]
> 1 µM | CC1CCCCC1NC(=O)c1csc(-c2c(-c3ccc(F)cc3)n[nH]c2C2CCNCC2)n1 (stereo not drawn) [Example 2069]
> 1 µM | O=C(NCCN1CCCC1)c1csc(-c2c(-c3ccc(F)cc3)n[nH]c2C2CCNCC2)n1 [Example 2070]
> 1 µM | CN1CCN(NC(=O)c2csc(-c3c(-c4ccc(F)cc4)n[nH]c3C3CCNCC3)n2)CC1 [Example 2071]
> 1 µM | CCN(CC)CCNC(=O)c1csc(-c2c(-c3ccc(F)cc3)n[nH]c2C2CCNCC2)n1 [Example 2072]
> 1 µM | Cc1cccc(CNC(=O)c2csc(-c3c(-c4ccc(F)cc4)n[nH]c3C3CCNCC3)n2)c1 [Example 2073]
> 1 µM | C[C@H](NC(=O)c1csc(-c2c(-c3ccc(F)cc3)n[nH]c2C2CCNCC2)n1)c1ccccc1 [Example 2074]
> 1 µM | C[C@@H](NC(=O)c1csc(-c2c(-c3ccc(F)cc3)n[nH]c2C2CCNCC2)n1)c1ccccc1 [Example 2075]
> 1 µM | O=C(NCCc1ccccc1)c1csc(-c2c(-c3ccc(F)cc3)n[nH]c2C2CCNCC2)n1 [Example 2076]
> 1 µM | Cc1ccccc1CNC(=O)c1csc(-c2c(-c3ccc(F)cc3)n[nH]c2C2CCNCC2)n1 [Example 2077]
> 1 µM | Cc1ccc(CNC(=O)c2csc(-c3c(-c4ccc(F)cc4)n[nH]c3C3CCNCC3)n2)cc1 [Example 2078]
> 1 µM | Cc1cnc(CNC(=O)c2csc(-c3c(-c4ccc(F)cc4)n[nH]c3C3CCNCC3)n2)cn1 [Example 2079]
> 1 µM | O=C(NCc1cccc(F)c1)c1csc(-c2c(-c3ccc(F)cc3)n[nH]c2C2CCNCC2)n1 [Example 2080]
> 1 µM | O=C(NCc1ccc(F)cc1)c1csc(-c2c(-c3ccc(F)cc3)n[nH]c2C2CCNCC2)n1 [Example 2081]
≤ 1 µM | O=C(NCc1ccccc1F)c1csc(-c2c(-c3ccc(F)cc3)n[nH]c2C2CCNCC2)n1 [Example 2082]
> 1 µM | O=C(NCCCn1ccnc1)c1csc(-c2c(-c3ccc(F)cc3)n[nH]c2C2CCNCC2)n1 [Example 2083]

IC50 | Compound
> 1 µM | CN1CCCC1CCNC(=O)c1csc(-c2c(-c3ccc(F)cc3)n[nH]c2C2CCNCC2)n1 (stereo not drawn) [Example 2084]
> 1 µM | O=C(NCCN1CCCCC1)c1csc(-c2c(-c3ccc(F)cc3)n[nH]c2C2CCNCC2)n1 [Example 2085]
> 1 µM | CC(C)CCCC(C)NC(=O)c1csc(-c2c(-c3ccc(F)cc3)n[nH]c2C2CCNCC2)n1 (stereo not drawn) [Example 2086]
> 1 µM | O=C(NCCN1CCOCC1)c1csc(-c2c(-c3ccc(F)cc3)n[nH]c2C2CCNCC2)n1 [Example 2087]
> 1 µM | CCOC(=O)CC(C)NC(=O)c1csc(-c2c(-c3ccc(F)cc3)n[nH]c2C2CCNCC2)n1 (stereo not drawn) [Example 2088]
> 1 µM | O=C(NC1CCc2ccccc21)c1csc(-c2c(-c3ccc(F)cc3)n[nH]c2C2CCNCC2)n1 (stereo not drawn) [Example 2089]
> 1 µM | Cc1ccc(CCNC(=O)c2csc(-c3c(-c4ccc(F)cc4)n[nH]c3C3CCNCC3)n2)cc1 [Example 2090]
> 1 µM | Cc1ccc(C)c(CNC(=O)c2csc(-c3c(-c4ccc(F)cc4)n[nH]c3C3CCNCC3)n2)c1 [Example 2091]
> 1 µM | Cc1ccc([C@H](C)NC(=O)c2csc(-c3c(-c4ccc(F)cc4)n[nH]c3C3CCNCC3)n2)cc1 [Example 2092]
> 1 µM | Cc1ccc([C@@H](C)NC(=O)c2csc(-c3c(-c4ccc(F)cc4)n[nH]c3C3CCNCC3)n2)cc1 [Example 2093]
> 1 µM | CC(CNC(=O)c1csc(-c2c(-c3ccc(F)cc3)n[nH]c2C2CCNCC2)n1)c1ccccc1 (stereo not drawn) [Example 2094]
> 1 µM | CC(CNC(=O)c1csc(-c2c(-c3ccc(F)cc3)n[nH]c2C2CCNCC2)n1)c1ccccc1 (stereo not drawn) [Example 2095]
> 1 µM | O=C(NCCCc1ccccc1)c1csc(-c2c(-c3ccc(F)cc3)n[nH]c2C2CCNCC2)n1 [Example 2096]
> 1 µM | Cc1ccc(CNC(=O)c2csc(-c3c(-c4ccc(F)cc4)n[nH]c3C3CCNCC3)n2)cc1C [Example 2097]
> 1 µM | CC(Cc1ccncc1)NC(=O)c1csc(-c2c(-c3ccc(F)cc3)n[nH]c2C2CCNCC2)n1 (stereo not drawn) [Example 2098]
> 1 µM | O=C(NCCc1ccc(O)cc1)c1csc(-c2c(-c3ccc(F)cc3)n[nH]c2C2CCNCC2)n1 [Example 2099]
> 1 µM | O=C(NCCOc1ccccc1)c1csc(-c2c(-c3ccc(F)cc3)n[nH]c2C2CCNCC2)n1 [Example 2100]
> 1 µM | COc1ccccc1CNC(=O)c1csc(-c2c(-c3ccc(F)cc3)n[nH]c2C2CCNCC2)n1 [Example 2101]
≤ 1 µM | COc1ccc(CNC(=O)c2csc(-c3c(-c4ccc(F)cc4)n[nH]c3C3CCNCC3)n2)cc1 [Example 2102]
> 1 µM | COc1cccc(CNC(=O)c2csc(-c3c(-c4ccc(F)cc4)n[nH]c3C3CCNCC3)n2)c1 [Example 2103]
> 1 µM | O=C(NCCc1ccc(F)cc1)c1csc(-c2c(-c3ccc(F)cc3)n[nH]c2C2CCNCC2)n1 [Example 2104]
> 1 µM | O=C(NCCc1ccccc1F)c1csc(-c2c(-c3ccc(F)cc3)n[nH]c2C2CCNCC2)n1 [Example 2105]
> 1 µM | O=C(NCCc1cccc(F)c1)c1csc(-c2c(-c3ccc(F)cc3)n[nH]c2C2CCNCC2)n1 [Example 2106]
> 1 µM | O=C(NCc1cccc(Cl)c1)c1csc(-c2c(-c3ccc(F)cc3)n[nH]c2C2CCNCC2)n1 [Example 2107]

IC50 | Compound
> 1 µM | O=C(NCc1ccccc1Cl)c1csc(-c2c(-c3ccc(F)cc3)n[nH]c2C2CCNCC2)n1 [Example 2108]
> 1 µM | O=C(NCc1ccc(Cl)cc1)c1csc(-c2c(-c3ccc(F)cc3)n[nH]c2C2CCNCC2)n1 [Example 2109]
> 1 µM | O=C(NCCCN1CCCC1=O)c1csc(-c2c(-c3ccc(F)cc3)n[nH]c2C2CCNCC2)n1 [Example 2110]
> 1 µM | O=C(NCc1ccc(F)cc1F)c1csc(-c2c(-c3ccc(F)cc3)n[nH]c2C2CCNCC2)n1 [Example 2111]
> 1 µM | O=C(NCc1ccc(F)c(F)c1)c1csc(-c2c(-c3ccc(F)cc3)n[nH]c2C2CCNCC2)n1 [Example 2112]
> 1 µM | O=C(NCc1cc(F)cc(F)c1)c1csc(-c2c(-c3ccc(F)cc3)n[nH]c2C2CCNCC2)n1 [Example 2113]
> 1 µM | O=C(NCCCN1CCOCC1)c1csc(-c2c(-c3ccc(F)cc3)n[nH]c2C2CCNCC2)n1 [Example 2114]
> 1 µM | CC(C)N(CCNC(=O)c1csc(-c2c(-c3ccc(F)cc3)n[nH]c2C2CCNCC2)n1)C(C)C [Example 2115]
> 1 µM | O=C(NC1CCCc2ccccc21)c1csc(-c2c(-c3ccc(F)cc3)n[nH]c2C2CCNCC2)n1 (stereo not drawn) [Example 2116]
> 1 µM | CC(CCc1ccccc1)NC(=O)c1csc(-c2c(-c3ccc(F)cc3)n[nH]c2C2CCNCC2)n1 (stereo not drawn) [Example 2117]
> 1 µM | CC(C)c1ccc(CNC(=O)c2csc(-c3c(-c4ccc(F)cc4)n[nH]c3C3CCNCC3)n2)cc1 [Example 2118]
> 1 µM | O=C(NCc1ccc2c(c1)OCO2)c1csc(-c2c(-c3ccc(F)cc3)n[nH]c2C2CCNCC2)n1 [Example 2119]
> 1 µM | COc1cccc(CCNC(=O)c2csc(-c3c(-c4ccc(F)cc4)n[nH]c3C3CCNCC3)n2)c1 [Example 2120]
> 1 µM | O=C(N[C@H](CO)Cc1ccccc1)c1csc(-c2c(-c3ccc(F)cc3)n[nH]c2C2CCNCC2)n1 [Example 2121]
> 1 µM | COc1ccc(CCNC(=O)c2csc(-c3c(-c4ccc(F)cc4)n[nH]c3C3CCNCC3)n2)cc1 [Example 2122]
> 1 µM | COc1ccccc1CCNC(=O)c1csc(-c2c(-c3ccc(F)cc3)n[nH]c2C2CCNCC2)n1 [Example 2123]
> 1 µM | CCOc1ccccc1CNC(=O)c1csc(-c2c(-c3ccc(F)cc3)n[nH]c2C2CCNCC2)n1 [Example 2124]
> 1 µM | COc1ccc(NC(=O)c2csc(-c3c(-c4ccc(F)cc4)n[nH]c3C3CCNCC3)n2)cc1OC [Example 2125]
> 1 µM | O=C(NCCc1ccccc1Cl)c1csc(-c2c(-c3ccc(F)cc3)n[nH]c2C2CCNCC2)n1 [Example 2126]
> 1 µM | O=C(NCCc1ccc(Cl)cc1)c1csc(-c2c(-c3ccc(F)cc3)n[nH]c2C2CCNCC2)n1 [Example 2127]
> 1 µM | O=C(NCCc1cccc(Cl)c1)c1csc(-c2c(-c3ccc(F)cc3)n[nH]c2C2CCNCC2)n1 [Example 2128]
> 1 µM | CC1(C)CC(NC(=O)c2csc(-c3c(-c4ccc(F)cc4)n[nH]c3C3CCNCC3)n2)CC(C)(C)N1 [Example 2129]
> 1 µM | CCN(CC)CCCC(C)NC(=O)c1csc(-c2c(-c3ccc(F)cc3)n[nH]c2C2CCNCC2)n1 (stereo not drawn) [Example 2130]
> 1 µM | O=C(NCc1ccc(F)c(Cl)c1)c1csc(-c2c(-c3ccc(F)cc3)n[nH]c2C2CCNCC2)n1 [Example 2131]
